Data taken from patent US12180197B2, “GLP-1R modulating compounds” (Gilead Sciences, Inc., priority 2021, dated 2024).

Target: GLP-1R (Homo sapiens, UniProt P43220)
Experiment: GLP-1R Activation - cAMP Assay 2
Assay type: cell-based
Details: cAMP increase in CHO cells stably expressing GLP-1R; pre-spotted agonists; assay buffer or 100% Human Plasma (not given); 30 minutes
Method: GLP-1R Activation—cAMP Assay 2
GLP-1R activation by small molecule agonists is quantified by measuring cAMP increase in CHO cells stably expressing GLP-1R (MultiSpan product #C1267-1a). 50 nL of agonists are pre-spotted in a 10 point dose response onto 384-well plate (Corning product #CL3826) using the Labcyte Echo System. The cells are harvested and plated in assay buffer (HBSS (Corning product #21-023-CV) with 20 mM Hepes (Gibco product #15630-080) and 0.1% BSA (Rockland Immunochemicals product #BSA-1000)) or 100% Human Plasma (Innovative Research product #50-643-396) at 1,000 cells/well, 10 μL/well, onto the pre-spotted plates. The cells are then incubated for 30 minutes at 37° C., 5% CO2. cAMP concentration increase is then detected using Cisbio's cAMP Gs Dynamic Kit (product #62AM4PEC) according to the manufacturer's protocol. The response is plotted against the log of the agonist concentration and fitted to a sigmoidal equation to determine the EC50.

Sequence of GLP-1R (P43220 24-463): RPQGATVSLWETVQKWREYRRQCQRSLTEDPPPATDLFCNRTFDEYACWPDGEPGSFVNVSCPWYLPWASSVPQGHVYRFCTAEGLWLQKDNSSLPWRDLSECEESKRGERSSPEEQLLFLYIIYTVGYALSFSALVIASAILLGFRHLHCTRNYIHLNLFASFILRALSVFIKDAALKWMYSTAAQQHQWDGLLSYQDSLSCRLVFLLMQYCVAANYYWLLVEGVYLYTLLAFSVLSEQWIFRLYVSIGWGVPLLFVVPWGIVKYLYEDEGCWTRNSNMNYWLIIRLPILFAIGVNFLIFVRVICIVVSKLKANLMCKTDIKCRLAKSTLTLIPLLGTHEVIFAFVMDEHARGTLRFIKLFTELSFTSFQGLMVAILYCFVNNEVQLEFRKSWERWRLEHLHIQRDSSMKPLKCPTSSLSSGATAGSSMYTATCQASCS

Which EC50 does the source give for `COCCn1c(CN2CCC(c3cccc(OCc4ccc(-c5cnn(C(F)F)c5)cc4F)n3)CC2)nc2ccc(C(=O)O)cc21` [Example 16, 2-((4-(6-((4-(1-(difluoromethyl)-1H-pyrazol-4-yl)-2-fluorobenzyl)oxy)pyridin-2-yl)piperidin-1-yl)methyl)-1-(2-methoxyethyl)-1H-benzo[d]imidazole-6-carboxylic acid] here?
Its EC50 is 11.8 nM.
